The test system of one data set is H1975 cells. Nature of the data set: In vitro cellular inhibitory activity on H1975 (XTT). Type of data set: cell-based. Particulars: Homo sapiens, NCI-H1975, 72 hours. An excerpt: Table 2 in vitro cellular inhibitory activities on H1975 (NSCLC, nonsmall-cell lung cancer)
For a further data set, the system named is Calu-3 cells. Nature of the data set: In vitro cellular inhibitory activity on Calu-3 (XTT). Type of data set: cell-based. Conditions: Homo sapiens, 72 hours. The text has this: Table 3 in vitro cellular inhibitory activities on Calu-3 (NSCLC nonsmall-cell lung cancer)
In general terms: Tetrazolium assays rely on reduction of a dye to a coloured formazan, in cell work by metabolically active cells.

The next data set concerns A431 cells. Nature of the data set: In vitro cellular inhibitory activity on A431 (XTT). It counts as cell-based. Conditions: Homo sapiens, A-431, 72 h, read-out: IC50 A431 cells.
The subject of data set [1] is human-derived LN-229 glioblastoma xenograft. Nature of the data set: In vivo pharmacodynamic evaluation, human-derived LN-229 glioblastoma xenograft. Details: species or system BALB/c nude mice. Particulars: 28 days after the administration.
The test system of another data set is 5637 cells. Nature of the data set: In vitro cellular inhibitory activity on 5637 bladder carcinoma cells (CTG kit). Type of data set: cell-based. Particulars: Homo sapiens, 72 hours. As for the experimental part: The effect of the compound to be tested on 5637 (bladder carcinoma) cell proliferation was tested using CTG kit.
535 μl DMSO was added into an EP tube filled with 3.32 mg of Compound 18 and evenly shaken (10 mM);
590 μl DMSO was added into an EP tube filled with 3.16 mg of Compound AZD9291 and evenly shaken (10 mM);
The compound was diluted with DMSO by 4-fold from 10 mM to 2.5 mM, 625 μM, 156 μM, 39 μM, 9.8 μM, 2.4 μM, 0.61 μM, 0.15 μM, 0.04 μM in turn.
Formulating a stock solution of a 10-fold compound: 2 μl 1000-fold Compound 18 or AZD9291 was respectively added into a 198 μl culture medium and evenly shaken.
1) Plating in the 384-well plate with 250 cells/well/22.5 ul;
2) After 24 hours, each well was added with 2.5 ul 10-fold drug which was well diluted to make the final concentration of 10 μM, 2.5 μM, 625 nM, 156 nM, 39 nM, 9.8 nM, 2.5 nM, 0.610 nM, 0.153 nM, 0.04 nM.
3) The plate was placed in the CO2 incubator and incubated at 37° C. for 72 hours
2) Each well was added with 25 ul CellTiter-Glo® agent, mixed for 2 minutes and placed at room temperature while being kept in darkness for 10 minutes.
3) Reading the […] using EnVision 2104 Multilabel Reader.

Another data set relates to BT474 cells. In words: In vitro cellular inhibitory activity on BT474 mammary cancer cells (XTT). Type of data set: cell-based. Conditions: Homo sapiens, BT-474, 72 hours.
The next data set deals with NCI-N87 cell. In words: In vitro cellular inhibitory activity on NCI-N87 gastric carcinoma cells (XTT). It counts as cell-based. Conditions: Homo sapiens, read-out: IC50 NCI-N87 cell.
Data set [2] concerns human-derived xenograft model HN2170. Nature of the data set: In vivo pharmacodynamic evaluation, head and neck cancer xenograft model HN2170. Further details: species or system BALB/c nude mice. Conditions: for Tumor Volume (Day 0): Day 0 (grouping, baseline); for T/C / TGI / Tumor Volume: 25 days after the administration. The procedure:
HN2170, head and neck cancer from a patient.
They were administered totally 25 days.

Data set [3] has as its system SKOV-3 human-derived xenografts model in ovarian cancer. Nature of the data set: In vivo pharmacodynamic evaluation, SKOV-3 human-derived xenografts model in ovarian cancer. Conditions: 14 days after the administration. Further details: species or system BALB/c nude mice. The procedure: The tumor was then stripped under sterile conditions to remove the necrotic tissues and select the well developed tumor tissues which were inoculated subcutaneously into an animal again. In this way the tumor tissues were subjected to passage for twice in the body of the mice. […] The tumor blocks were inoculated subcutaneously to the right coastal region of the mice with an inoculation needle. […] The tumor size was measured twice a week with an […] caliper.
For orientation: Xenograft models place foreign cells or tissue in a host animal.

Data set [4] relates to gallbladder carcinoma xenografts model GL6899. In words: In vivo pharmacodynamic evaluation, gallbladder carcinoma xenografts model GL6899. Details: species or system BALB/c nude mice. As for the experimental part:
GL6899, gallbladder carcinoma from a patient
Comparison between the two groups of data was tested by independent sample t test.

The test system of data set [5] is human-derived cholangiocarcinoma (10114) xenograft model. In words: In vivo pharmacodynamic evaluation, human-derived cholangiocarcinoma (10114) xenograft model. Details: species or system BALB/c nude mice. As for the experimental part:
10114, cholangiocarcinoma from a patient.
Tumor tissues of human cholangiocarcinoma (10114) were cut into tumor blocks of volume of 3 mm×3 mm×3 mm which were inoculated subcutaneously in mice. The tumor volume was observed and measured. […] The efficacy was evaluated according to the tumor growth inhibition (TGI).
The experimental data were analyzed using statistical software SPSS 20.0. The data associated with the tumor volume was analyzed with T-test. **P<0.05 compared with the control group represents significant statistical difference.

Data set [6] concerns KYSE270 human esophageal carcinoma model. Particulars: for Relative Tumor Volume / T/C / TGI / Tumor Volume: 21 days after the administration.
Setting [7] is: 20 mg/kg p.o. once a day, 21 days.
[8] abbreviates: 20 mg/kg oral once a day, 21 days after the administration.

Structures can show the parent of a compound that is named as a salt. Where two headings read alike, the source gives them in different places. Marks after values point to notes of the source that are not given here.

Method for BT474 cells: BT474 cells (human breast ductal carcinoma cell, purchased from ATCC). […] The maximum concentration of the test compound was 10 μM, and there were 10 concentration gradients in total. For each compound, the operation was duplicated. […] 2) The plate was placed in the CO2 cell incubator and incubated at 37° C. for 72 hours. 2) The culture medium was removed; each well was added with 150 μl XTT working solution. […] 4) Slightly and evenly shaking before reading the absorbance.
Method for NCI-N87 cell: For each compound, the above operation was triplicated. […] 2) The plate was placed in the CO2 incubator and incubated at 37° C. for 72 hours. 2) The culture medium was removed and each well was added with 150 μl XTT working solution. […] 4) Slightly and evenly shaking before reading the absorbance.

Turning to `C=CC(=O)Nc1cc2c(Nc3ccc(F)c(Cl)c3)ncnc2cc1OCCCN1CCOCC1` [CI-1033 hydrochloride, reference compound], the IC50 in the data set on H1975 cells is 157 nM; in the data set with Calu-3 cells, 686 nM; in the data set with A431 cells, 402 nM.

Usually T/C stands for the result in the treated group divided by that in the control group, in per cent. The molecule `C=CC(=O)Nc1cc2c(Nc3ccc(F)c(Cl)c3)ncnc2cc1OCC[C@@H]1[C@H]2CN(C)C[C@@H]12` [Compound 8] displayed an IC50 in the data set with H1975 cells of 306 nM. In addition, in data set [1] (30 mg/kg oral once a day), the T/C was found to be 21.3%, the TGI came out at 78.7% and the “Tumor Volume” value is reported as 121 ± 17 mm^3.

For `C=CC(=O)Nc1cc2c(Nc3ccc(F)c(Cl)c3)ncnc2cc1OCC1CC2(CCN(C)CC2)C1` [Compound 18, N-[4-(3-chloro-4-fluorophenylamino)-7-((7-methyl-7-azaspiro[3.5]nonan-2-yl)methoxy)quinazolin-6-yl]-acrylamide], the IC50 stood at 92.3 nM in the data set on H1975 cells; 38.2 nM with Calu-3 cells; 38.6 nM with 5637 cells; 9.7 nM in the data set with BT474 cells; 7.1 nM with NCI-N87 cell (NCI-N87, 72 hours, XTT). Besides, the “Tumor Volume (Day 0)” value in data set [2] (20 mg/kg group) is reported as 143.1 ± 22.9 mm^3. Besides, the T/C in [2] (20 mg/kg oral once a day) is reported as 6.5%; in data set [1] (10 mg/kg oral once a day) it was 45.6%; in data set [1] (20 mg/kg oral once a day), 34.0%; in [3] (10 mg/kg oral once a day) it was 49.1%; in [3] (20 mg/kg oral once a day), 32.1%; in data set [4] (setting [7]), 2.6%. Further, the figures for the T/C in data set [5] (setting [8]), in data set [6] (10 mg/kg oral once a day) and in [6] (20 mg/kg oral once a day) were 18.1%, 2% and 1%, respectively. Besides, the TGI in [2] (20 mg/kg oral once a day) came out at 93.5%; in data set [1] (10 mg/kg oral once a day), 54.4%; in data set [1] (20 mg/kg oral once a day) it was 66.0%; in data set [3] (10 mg/kg oral once a day), 50.9%; in data set [3] (20 mg/kg oral once a day), 67.9%; in data set [4] (setting [7]) it was 97.4%. Further, the TGI in data set [5] (setting [8]) is reported as 81.9%; in [6] (10 mg/kg oral once a day), 98%; in data set [6] (20 mg/kg oral once a day), 99%. For the same molecule, the “Tumor Volume” value is 46.3 ± 10.6*** mm^3 in data set [2] (20 mg/kg oral once a day); 260 ± 27 mm^3 in [1] (10 mg/kg oral once a day); 191 ± 11 mm^3 in data set [1] (20 mg/kg oral once a day); 798 ± 88 mm^3 in data set [3] (10 mg/kg oral once a day); 540 ± 86 mm^3 in data set [3] (20 mg/kg oral once a day); 107.53 ± 15.80*** mm^3 in data set [5] (setting [8]). For the same molecule, the “Tumor Volume” value in [6] (10 mg/kg oral once a day) was found to be 40 ± 6 mm^3; in data set [6] (20 mg/kg oral once a day), 14 ± 3 mm^3. In data set [4] (20 mg/kg group, day 0 (grouping, baseline)), the “Tumor Volume on day 0” value came out at 135.53 ± 9.60 mm^3. The “Tumor Volume after adminstration of 21 days” value in [4] (setting [7]) is given as 26.63 ± 2.37*** mm^3. The “Tumor Volume On Day 0” value in data set [5] (20 mg/kg group, Day 0 (grouping, baseline)) is listed as 138.6 ± 8.9 mm^3. Further, the entries for the “Relative Tumor Volume” value in data set [5] (setting [8]), in data set [6] (10 mg/kg oral once a day) and in data set [6] (20 mg/kg oral once a day) were 77.13 ± 9.34%, 0.33 ± 0.05 and 0.11 ± 0.02, respectively. Further, in data set [6] (10 mg/kg and 20 mg/kg), the “Tolerability in mice with tumor” value was “can tolerate the tested drugs well”.

In turn, `C=CC(=O)Nc1cc2c(Nc3ccc(F)c(Cl)c3)ncnc2cc1OCCC1CC2(CCN(C)CC2)C1` [Compound 19 hydrochloride, N-[4-(3-chloro-4-fluorophenylamino)-7-(2-(7-methyl-7-azaspiro[3.5]nonan-2-yl)ethoxy)quinazolin-6-yl]-acrylamide hydrochloride] had an IC50 in the data set on H1975 cells of 104 nM.

Consider `C#Cc1cccc(Nc2ncnc3cc(OCCOC)c(OCCOC)cc23)c1` [Erlotinib hydrochloride, erlotinib hydrochloride, reference compound], for which the IC50 stood at 3980 nM in the data set on H1975 cells and 1320 nM with Calu-3 cells.

`CS(=O)(=O)CCNCc1ccc(-c2ccc3ncnc(Nc4ccc(OCc5cccc(F)c5)c(Cl)c4)c3c2)o1` [Lapatinib ditosylate, lapatinib ditosylate, reference compound]: the IC50 amounted to 4530 nM in the data set with H1975 cells and 94.3 nM with Calu-3 cells.

In the case of `CS(=O)(=O)CCNCc1ccc(-c2ccc3ncnc(Nc4ccc(OCc5cccc(F)c5)c(Cl)c4)c3c2)o1` [Lapatinib, reference compound], the IC50 with NCI-N87 cell (NCI-N87, 72 h) came to 11.9 nM. Moreover, in data set [1] (200 mg/kg oral once a day), the T/C stood at 45.6%, the TGI is 54.4% and the “Tumor Volume” value is 261 ± 42 mm^3. For the same molecule, in data set [3] (80 mg/kg oral once a day), the T/C worked out at 83.4% and the “Tumor Volume” value was determined as 1339 ± 167 mm^3.

`CCOc1cc2ncc(C#N)c(Nc3ccc(OCc4ccccn4)c(Cl)c3)c2cc1NC(=O)/C=C/CN(C)C` [Neratinib, reference compound]: the “Tumor Volume (Day 0)” value in [2] (80 mg/kg group) stood at 142.4 ± 23.4 mm^3. Moreover, in data set [2] (80 mg/kg oral once a day), the T/C was determined as 7.2%, the TGI is 92.8% and the “Tumor Volume” value is 53.7 ± 10.3*** mm^3. Also, in data set [1] (80 mg/kg oral once a day), the T/C was determined as 34.3%, the TGI worked out at 65.7% and the “Tumor Volume” value is listed as 197 ± 20 mm^3.

The values are drawn from US10507209B2, “Quinazoline derivatives substituted by aniline, preparation method and use thereof” (XUANZHU PHARMA CO., LTD., priority 2010, dated 2019).
